Legend:
CDK1/CycA2 = CDK1/CycA2 (Homo sapiens, UniProt P06493); experiment: CDK kinase selectivity (HTRF / ADP-Glo); type: biochemical; conditions: compound at 0.1 µM; read-out: Inhibition rate CDK1/CycA2
Description: (§1) The selectivity of the test compounds against CDK kinases was detected. The compounds were tested at a concentration of 0.1 µM, and the inhibition rate of CDK kinases by the compounds was detected in duplicate wells, mainly using HTRF and ADP-Glo detection methods.
(§2) The HTRF detection method was conducted as follows: 2-fold ATP/substrate solution and 2-fold kinase/metal ion solution were prepared respectively with a kinase reaction buffer, and 25 nL of diluted compound solution was transferred to a 384-well detection plate with Echo 655. After centrifugation, the plate was added with 2.5 µL of 2-fold kinase/metal ion solution and incubated at 25°C for 10 minutes. After 10 minutes, 2.5 µL of 2-fold substrate/ATP solution was added to the 384-well detection plate and incubated at 25°C for 60 minutes. 2 kinase detection reagent (XL665 and antibody) was prepared with detection buffer, and 5 µL of kinase detection reagent was added to the 384-well detection plate and incubated at 25°C for 60 minutes. The fluorescence signals at 620 nm (Cryptate) and 665 nm (XL665) were read by the microplate reader, and the ratio and the inhibition rate of kinase activity by the compound were calculated.
(§3) The ADP-Glo detection method was conducted as follows. 2-fold ATP/substrate solution and 2-fold kinase/metal ion solution were prepared respectively with a kinase reaction buffer. 20 nL of diluted compound solution was transferred to a 384-well detection plate by Echo 655. After centrifuged, the 384-well detection plate was added with 2 µL of 2 × kinase/metal ion solution, and incubated at 25°C for 10 minutes. After 10 minutes, the 384-well detection plate was added with 2 µL of 2 × substrate/ATP solution and incubated at 25°C for 60 minutes. 4 µL of ADP-Glo reagent was added to each well and incubated at room temperature for 40 minutes. 10 µL of ADP detection reagent was added to each well and incubated at room temperature for 40 minutes. The chemiluminescent signal was detected with a microplate reader and the inhibition rate of kinase activity was calculated.

CDK12/CyclinK = CDK12/CyclinK (Homo sapiens, UniProt Q9NYV4); experiment: CDK kinase selectivity (HTRF / ADP-Glo); type: biochemical; conditions: compound at 0.1 µM; read-out: Inhibition rate CDK12/CyclinK
Description: as §1, §2, §3

CDK13/CyclinK = CDK13/CyclinK (Homo sapiens, UniProt Q14004); experiment: CDK kinase selectivity (HTRF / ADP-Glo); type: biochemical; conditions: compound at 0.1 µM; read-out: Inhibition rate CDK13/CyclinK
Description: as §1, §2, §3

CDK16/CyclinY = CDK16/CyclinY (Homo sapiens, UniProt Q00536); experiment: CDK kinase selectivity (HTRF / ADP-Glo); type: biochemical; conditions: compound at 0.1 µM; read-out: Inhibition rate CDK16/CyclinY
CDK16/CyclinY, sequence (Q00536 whole entry): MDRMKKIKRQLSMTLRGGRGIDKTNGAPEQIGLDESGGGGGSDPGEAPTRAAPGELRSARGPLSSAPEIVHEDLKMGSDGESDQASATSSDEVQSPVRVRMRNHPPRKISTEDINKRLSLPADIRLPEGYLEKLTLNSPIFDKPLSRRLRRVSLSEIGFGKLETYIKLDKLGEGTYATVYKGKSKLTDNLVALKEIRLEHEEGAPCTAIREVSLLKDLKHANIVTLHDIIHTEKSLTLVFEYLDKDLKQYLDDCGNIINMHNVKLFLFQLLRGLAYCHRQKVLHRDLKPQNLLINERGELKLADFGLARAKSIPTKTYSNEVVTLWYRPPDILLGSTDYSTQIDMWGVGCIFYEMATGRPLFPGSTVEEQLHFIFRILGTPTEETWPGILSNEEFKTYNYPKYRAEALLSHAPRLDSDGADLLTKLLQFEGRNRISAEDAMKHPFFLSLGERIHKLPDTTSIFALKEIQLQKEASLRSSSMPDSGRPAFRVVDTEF
CDK16/CyclinY, sequence (Q8ND76 whole entry partner): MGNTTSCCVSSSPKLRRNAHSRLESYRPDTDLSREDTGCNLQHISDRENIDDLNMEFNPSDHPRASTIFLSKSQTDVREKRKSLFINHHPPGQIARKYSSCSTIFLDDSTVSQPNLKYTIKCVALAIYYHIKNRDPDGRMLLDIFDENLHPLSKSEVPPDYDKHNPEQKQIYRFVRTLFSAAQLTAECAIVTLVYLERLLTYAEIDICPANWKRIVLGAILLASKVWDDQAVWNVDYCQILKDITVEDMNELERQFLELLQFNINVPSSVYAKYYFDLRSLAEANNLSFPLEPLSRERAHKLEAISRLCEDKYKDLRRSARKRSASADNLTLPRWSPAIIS
Description: as §1, §2, §3

CDK18/CyclinY = CDK18/CyclinY (Homo sapiens, UniProt Q07002); experiment: CDK kinase selectivity (HTRF / ADP-Glo); type: biochemical; conditions: compound at 0.1 µM; read-out: Inhibition rate CDK18/CyclinY
CDK18/CyclinY, sequence (Q07002 whole entry): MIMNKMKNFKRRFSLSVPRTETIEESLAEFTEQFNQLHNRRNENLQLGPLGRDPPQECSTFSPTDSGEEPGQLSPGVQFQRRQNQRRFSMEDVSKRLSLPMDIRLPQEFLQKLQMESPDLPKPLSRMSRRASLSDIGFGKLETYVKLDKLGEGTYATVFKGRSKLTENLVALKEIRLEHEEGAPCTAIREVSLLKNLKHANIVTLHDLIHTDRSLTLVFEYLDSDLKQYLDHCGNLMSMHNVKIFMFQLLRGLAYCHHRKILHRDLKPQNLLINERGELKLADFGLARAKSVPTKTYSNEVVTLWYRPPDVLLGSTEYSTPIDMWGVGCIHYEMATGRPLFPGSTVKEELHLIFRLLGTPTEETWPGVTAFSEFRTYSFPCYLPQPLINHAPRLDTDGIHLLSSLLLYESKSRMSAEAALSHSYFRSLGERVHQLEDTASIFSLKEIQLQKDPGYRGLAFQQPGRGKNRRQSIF
CDK18/CyclinY, sequence (Q8ND76 whole entry partner): as the sequence (Q8ND76 whole entry partner) above
Description: as §1, §2, §3

CDK19/CycC = CDK19/CycC (Homo sapiens, UniProt Q9BWU1); experiment: CDK kinase selectivity (HTRF / ADP-Glo); type: biochemical; conditions: compound at 0.1 µM; read-out: Inhibition rate CDK19/CycC
CDK19/CycC, sequence (Q9BWU1 whole entry): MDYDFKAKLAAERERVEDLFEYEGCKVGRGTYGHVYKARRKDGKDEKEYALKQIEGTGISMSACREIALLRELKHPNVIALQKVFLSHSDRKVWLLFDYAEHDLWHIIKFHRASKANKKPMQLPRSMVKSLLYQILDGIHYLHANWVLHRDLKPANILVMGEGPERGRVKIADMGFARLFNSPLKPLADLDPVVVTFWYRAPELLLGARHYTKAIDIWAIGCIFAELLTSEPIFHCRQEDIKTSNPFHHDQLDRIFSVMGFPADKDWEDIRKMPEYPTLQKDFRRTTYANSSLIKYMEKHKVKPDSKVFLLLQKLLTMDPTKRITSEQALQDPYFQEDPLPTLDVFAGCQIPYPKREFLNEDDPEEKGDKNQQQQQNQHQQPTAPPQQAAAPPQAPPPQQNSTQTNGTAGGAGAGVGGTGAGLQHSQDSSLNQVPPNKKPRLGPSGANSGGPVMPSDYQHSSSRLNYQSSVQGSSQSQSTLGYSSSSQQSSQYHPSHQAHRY
CDK19/CycC, sequence (P24863 whole entry partner): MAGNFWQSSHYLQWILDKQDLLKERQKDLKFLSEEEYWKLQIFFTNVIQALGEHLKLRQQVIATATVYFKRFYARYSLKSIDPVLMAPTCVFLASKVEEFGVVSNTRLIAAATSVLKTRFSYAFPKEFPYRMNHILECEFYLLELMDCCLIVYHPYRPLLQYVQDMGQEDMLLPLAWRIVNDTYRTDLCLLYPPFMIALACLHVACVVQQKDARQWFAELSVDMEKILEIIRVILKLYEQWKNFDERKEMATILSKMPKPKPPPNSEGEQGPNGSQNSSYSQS
Description: as §1, §2, §3

CDK4/CycD3 = CDK4/CycD3 (Homo sapiens, UniProt P11802); experiment: CDK kinase selectivity (HTRF / ADP-Glo); type: biochemical; conditions: compound at 0.1 µM; read-out: Inhibition rate CDK4/CycD3
Description: as §1, §2, §3

CDK5/p35NCK = CDK5/p35NCK (Homo sapiens, UniProt Q00535); experiment: CDK kinase selectivity (HTRF / ADP-Glo); type: biochemical; conditions: compound at 0.1 µM; read-out: Inhibition rate CDK5/p35NCK
CDK5/p35NCK, sequence (Q00535 whole entry): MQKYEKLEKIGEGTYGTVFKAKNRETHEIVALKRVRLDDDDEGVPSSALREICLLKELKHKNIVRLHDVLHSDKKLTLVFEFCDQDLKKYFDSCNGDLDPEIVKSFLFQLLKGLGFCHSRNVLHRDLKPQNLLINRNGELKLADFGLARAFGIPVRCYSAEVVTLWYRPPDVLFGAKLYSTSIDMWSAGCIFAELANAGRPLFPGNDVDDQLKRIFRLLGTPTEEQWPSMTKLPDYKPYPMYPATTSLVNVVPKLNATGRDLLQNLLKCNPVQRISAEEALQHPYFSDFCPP
CDK5/p35NCK, sequence (Q15078 2-307 partner limits assumed): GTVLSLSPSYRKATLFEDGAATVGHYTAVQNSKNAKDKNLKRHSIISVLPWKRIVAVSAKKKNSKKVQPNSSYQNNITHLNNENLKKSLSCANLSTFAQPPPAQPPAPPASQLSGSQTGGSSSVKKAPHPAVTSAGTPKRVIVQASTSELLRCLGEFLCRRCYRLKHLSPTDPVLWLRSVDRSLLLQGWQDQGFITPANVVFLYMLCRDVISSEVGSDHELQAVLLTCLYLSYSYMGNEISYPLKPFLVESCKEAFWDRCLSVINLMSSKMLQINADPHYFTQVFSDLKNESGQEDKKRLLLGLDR
Description: as §1, §2, §3

CDK6/CycD3 = CDK6/CycD3 (Homo sapiens, UniProt Q00534); experiment: CDK kinase selectivity (HTRF / ADP-Glo); type: biochemical; conditions: compound at 0.1 µM; read-out: Inhibition rate CDK6/CycD3
Description: as §1, §2, §3

CDK7/CycH/MAT1 = CDK7/CycH/MAT1 (Homo sapiens, UniProt P50613); experiment: CDK kinase selectivity (HTRF / ADP-Glo); type: biochemical; conditions: compound at 0.1 µM; read-out: Inhibition rate CDK7/CycH/MAT1
Description: as §1, §2, §3

CDK9/CycT1 = CDK9/CycT1 (Homo sapiens, UniProt P50750); experiment: CDK kinase selectivity (HTRF / ADP-Glo); type: biochemical; conditions: compound at 0.1 µM; read-out: Inhibition rate CDK9/CycT1
CDK9/CycT1, sequence (P50750 whole entry, species assumed): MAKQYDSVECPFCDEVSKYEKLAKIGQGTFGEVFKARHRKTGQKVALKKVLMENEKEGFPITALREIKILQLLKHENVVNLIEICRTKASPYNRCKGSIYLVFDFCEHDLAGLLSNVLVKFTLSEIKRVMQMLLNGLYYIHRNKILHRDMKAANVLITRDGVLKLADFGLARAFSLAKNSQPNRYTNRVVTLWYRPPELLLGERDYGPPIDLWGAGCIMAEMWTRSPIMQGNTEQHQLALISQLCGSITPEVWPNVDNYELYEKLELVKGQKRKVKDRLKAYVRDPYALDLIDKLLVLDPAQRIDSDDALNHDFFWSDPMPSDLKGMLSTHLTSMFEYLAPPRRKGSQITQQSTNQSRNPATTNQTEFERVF
CDK9/CycT1, sequence (O60563 whole entry partner, species assumed): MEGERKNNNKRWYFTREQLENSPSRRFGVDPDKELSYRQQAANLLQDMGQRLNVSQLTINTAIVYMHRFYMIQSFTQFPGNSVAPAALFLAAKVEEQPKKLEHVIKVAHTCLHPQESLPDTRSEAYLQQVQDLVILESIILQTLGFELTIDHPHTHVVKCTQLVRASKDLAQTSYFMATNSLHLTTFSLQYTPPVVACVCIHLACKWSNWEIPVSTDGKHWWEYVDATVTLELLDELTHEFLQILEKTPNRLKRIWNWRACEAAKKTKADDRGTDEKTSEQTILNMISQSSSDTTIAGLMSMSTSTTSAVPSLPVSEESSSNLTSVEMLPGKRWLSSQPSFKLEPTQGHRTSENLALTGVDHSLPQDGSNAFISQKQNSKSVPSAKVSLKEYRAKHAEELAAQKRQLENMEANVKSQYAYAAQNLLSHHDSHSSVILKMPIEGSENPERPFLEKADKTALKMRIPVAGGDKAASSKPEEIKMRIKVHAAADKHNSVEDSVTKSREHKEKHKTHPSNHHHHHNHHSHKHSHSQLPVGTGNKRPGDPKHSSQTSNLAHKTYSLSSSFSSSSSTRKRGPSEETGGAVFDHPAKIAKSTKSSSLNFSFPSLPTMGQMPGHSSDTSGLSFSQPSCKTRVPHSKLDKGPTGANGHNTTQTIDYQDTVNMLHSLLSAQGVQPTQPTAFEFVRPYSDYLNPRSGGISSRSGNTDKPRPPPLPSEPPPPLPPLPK
Description: as §1, §2, §3

A375 = experiment: CDK9 cell activity assay, cell growth inhibition (CellTiter-Glo, 72 hours); type: cell-based; conditions: Homo sapiens, A-375
Description: (§4) In the CDK9 cell activity assay, the cell line MV-4-11 was cultured in IMDM culture medium containing 10% fetal bovine serum (containing 100 U/mL penicillin and 0.1 g/L streptomycin); the cell line HCC1187 was cultured in RPMI-1640 culture medium containing 10% fetal bovine serum (containing 100 U/mL penicillin and 0.1 g/L streptomycin); the cell line Mia Paca-2 was cultured in DMEM containing 10% fetal bovine serum and 2.5% horse serum (containing 100 U/mL penicillin and 0.1 g/L streptomycin); and the cell line A375 was cultured in RPMI-1640 culture medium containing 10% fetal bovine serum (containing 100 U/mL penicillin and 0.1 g/L streptomycin). All cells were cultured in an incubator with saturated humidity at 37°C with 5% CO2.
(§5) When MV-4-11 cells, HCC1187 cells, Mia Paca-2 cells, and A375 cells grew to 80%-90% confluence, they were digested with trypsin, resuspended, counted, and diluted to a certain cell density with complete medium. 100 µL of the cells was plated into each well of a 96-well plate, and the complete medium was used as a background control. The cells were cultured overnight in an incubator with saturated humidity at 37°C with 5% CO2. The compounds were diluted with DMSO to a final concentration of 200×. 3 µL of the stock solution of the above compounds in DMSO was added to 197 µL of complete medium, and 50 µL of the compound diluted in the medium was added to the cells of each well. The cells were cultured in an incubator with saturated humidity at 37°C with 5% CO2 for 72 hours. After 72 hours, the culture plates were placed at room temperature for equilibrium. 40 µL of CellTiter-Glo® reagent was added to each well. The plate was mixed evenly on a shaker for 2 minutes to lyse the cells then incubated at room temperature for 60 minutes to stabilize the chemiluminescent signal, and the chemiluminescence was read using a PE EnVision microplate reader. The inhibition rate on cell growth was calculated as % Inh = (DMSO well - compound treatment well) / (DMSO well - background well) x 100, and fitting was performed using GraphPad Prism 5 to obtain the IC50 values against cell growth.

HCC1187 = experiment: as above; type: cell-based; conditions: Homo sapiens
Description: as §4, §5

MV-4-11 = experiment: as above; type: cell-based; conditions: Homo sapiens, MV4-11
Description: as §4, §5

Mia-Paca-2 = experiment: as above; type: cell-based; conditions: Homo sapiens
Description: as §4, §5

CDK1/CycA2, sequence (P06493 whole entry): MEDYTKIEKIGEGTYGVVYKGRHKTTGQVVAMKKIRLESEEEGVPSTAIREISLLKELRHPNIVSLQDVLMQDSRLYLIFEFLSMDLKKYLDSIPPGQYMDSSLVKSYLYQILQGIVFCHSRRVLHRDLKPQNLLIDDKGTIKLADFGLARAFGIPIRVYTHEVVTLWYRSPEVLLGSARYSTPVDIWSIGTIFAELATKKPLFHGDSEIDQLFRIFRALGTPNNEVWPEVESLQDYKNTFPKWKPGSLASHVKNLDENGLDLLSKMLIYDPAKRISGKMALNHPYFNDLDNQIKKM
CDK1/CycA2, sequence (P20248 whole entry, further chain): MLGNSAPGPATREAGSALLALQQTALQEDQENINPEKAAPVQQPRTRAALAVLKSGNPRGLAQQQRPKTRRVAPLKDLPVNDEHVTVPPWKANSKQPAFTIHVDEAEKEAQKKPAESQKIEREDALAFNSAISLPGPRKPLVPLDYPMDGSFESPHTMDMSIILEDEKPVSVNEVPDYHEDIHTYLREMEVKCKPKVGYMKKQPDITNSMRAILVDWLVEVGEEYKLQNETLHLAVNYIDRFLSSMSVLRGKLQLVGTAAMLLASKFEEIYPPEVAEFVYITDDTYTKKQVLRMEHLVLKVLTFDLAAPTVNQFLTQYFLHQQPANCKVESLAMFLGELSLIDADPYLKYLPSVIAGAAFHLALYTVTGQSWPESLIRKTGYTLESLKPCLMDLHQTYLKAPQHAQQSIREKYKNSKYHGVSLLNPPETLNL

Clc1cnc2nc1NCCCCCNCc1cccc(c1)N2 [Compound 8, 1^5-chloro-2,5,11-triaza-1(2,4)-pyrimidina-3(1,3)-benzenacyclodecaphane]
50 to 75%: inhibition at 0.1 µM (CDK12/CyclinK) | inhibition at 0.1 µM (CDK13/CyclinK) | inhibition at 0.1 µM (CDK16/CyclinY) | inhibition at 0.1 µM (CDK4/CycD3) | inhibition at 0.1 µM (CDK7/CycH/MAT1)
> 95%: inhibition at 0.1 µM (CDK9/CycT1)
< 250 nM: IC50 (A375) | IC50 (MV-4-11) | IC50 (Mia-Paca-2)
< 50%: inhibition at 0.1 µM (CDK1/CycA2) | inhibition at 0.1 µM (CDK18/CyclinY) | inhibition at 0.1 µM (CDK19/CycC) | inhibition at 0.1 µM (CDK5/p35NCK) | inhibition at 0.1 µM (CDK6/CycD3)
250 to 1000 nM: IC50 (HCC1187)
